We go through three compounds from ChEMBL document CHEMBL5303573, “Mapping human microbiome drug metabolism by gut bacteria and their genes” (Nature, 2019).

Structures are written as SMILES.

For the first series the following is noted: bacteroides thetaiotaomicron, 12 h, 2 µM.
Description: The drug is tested on Bacteroides thetaiotaomicron strain: VPI-5482 for biotransformation. The drug concentrations were measured before and after a 12-h incubation by liquid-chromatography-coupled mass spectrometry (LC–MS)
In the case of `CN(C)CCC=C1c2ccccc2C=Cc2ccccc21` [CYCLOBENZAPRINE], the “Bacterial Biotransformation” value is “Compound NOT metabolized”.

Take `CCOC(=O)[C@H](CCc1ccccc1)N[C@@H](C)C(=O)N1Cc2ccccc2C[C@H]1C(=O)O`: the “Bacterial Biotransformation” value was “Compound metabolized”.

Regarding `COC(=O)[C@H](c1ccccc1Cl)N1CCc2sccc2C1.O=S(=O)(O)O` [CLOPIDOGREL BISULFATE], the “Bacterial Biotransformation” value is “Compound metabolized”.

The next series is described as follows: The drug is tested on Blautia hansenii strain: DSM20583 for biotransformation. The drug concentrations were measured before and after a 12-h incubation by liquid-chromatography-coupled mass spectrometry (LC–MS). Conditions: 2 µM.
For the compound `CN(C)CCC=C1c2ccccc2C=Cc2ccccc21` [CYCLOBENZAPRINE], the “Bacterial Biotransformation” value is “Compound metabolized”.

With `CCOC(=O)[C@H](CCc1ccccc1)N[C@@H](C)C(=O)N1Cc2ccccc2C[C@H]1C(=O)O`, the “Bacterial Biotransformation” value is recorded as “Compound metabolized”.

Turning to `COC(=O)[C@H](c1ccccc1Cl)N1CCc2sccc2C1.O=S(=O)(O)O` [CLOPIDOGREL BISULFATE], the “Bacterial Biotransformation” value was “Compound metabolized”.

For the next series the following is noted: victivallis vadensis, 12 h, 2 µM.
Description: The drug is tested on Victivallis vadensis strain: ATCC BAA-548 for biotransformation. The drug concentrations were measured before and after a 12-h incubation by liquid-chromatography-coupled mass spectrometry (LC–MS)
With `CN(C)CCC=C1c2ccccc2C=Cc2ccccc21` [CYCLOBENZAPRINE], the “Bacterial Biotransformation” value is on record as “Compound NOT metabolized”.

On to `CCOC(=O)[C@H](CCc1ccccc1)N[C@@H](C)C(=O)N1Cc2ccccc2C[C@H]1C(=O)O`, for which the “Bacterial Biotransformation” value is recorded as “Compound NOT metabolized”.

A further series is described as follows: The drug is tested on Escherichia coli strain: BW25113 for biotransformation. The drug concentrations were measured before and after a 12-h incubation by liquid-chromatography-coupled mass spectrometry (LC–MS). Conditions: 2 µM.
On to `CN(C)CCC=C1c2ccccc2C=Cc2ccccc21` [CYCLOBENZAPRINE], for which the “Bacterial Biotransformation” value is given as “Compound NOT metabolized”.

Consider `CCOC(=O)[C@H](CCc1ccccc1)N[C@@H](C)C(=O)N1Cc2ccccc2C[C@H]1C(=O)O`, for which the “Bacterial Biotransformation” value is on record as “Compound NOT metabolized”.

With `COC(=O)[C@H](c1ccccc1Cl)N1CCc2sccc2C1.O=S(=O)(O)O` [CLOPIDOGREL BISULFATE], the “Bacterial Biotransformation” value is on record as “Compound NOT metabolized”.

The nature of another series: The drug is tested on Clostridium asparagiforme strain: DSM15981 for biotransformation. The drug concentrations were measured before and after a 12-h incubation by liquid-chromatography-coupled mass spectrometry (LC–MS). It counts as ADME. Set-up: dose 2 uM, timepoint 0 vs 12 hours. Conditions: enterocloster asparagiformis, 2 µM.
Turning to `COC(=O)[C@H](c1ccccc1Cl)N1CCc2sccc2C1.O=S(=O)(O)O` [CLOPIDOGREL BISULFATE], the “Bacterial Biotransformation” value is reported as “Compound NOT metabolized”.

The next series is described as follows: The drug is tested on Collinsella intestinalis strain: DSM13280 for biotransformation. The drug concentrations were measured before and after a 12-h incubation by liquid-chromatography-coupled mass spectrometry (LC–MS). Conditions: 2 µM.
Turning to `CN(C)CCC=C1c2ccccc2C=Cc2ccccc21` [CYCLOBENZAPRINE], the “Bacterial Biotransformation” value was “Compound NOT metabolized”.

For the compound `CCOC(=O)[C@H](CCc1ccccc1)N[C@@H](C)C(=O)N1Cc2ccccc2C[C@H]1C(=O)O`, the “Bacterial Biotransformation” value was “Compound metabolized”.

Regarding `COC(=O)[C@H](c1ccccc1Cl)N1CCc2sccc2C1.O=S(=O)(O)O` [CLOPIDOGREL BISULFATE], the “Bacterial Biotransformation” value is listed as “Compound NOT metabolized”.

Another series can be described thus: The drug is tested on Bifidobacterium breve strain: DSM20213 for biotransformation. The drug concentrations were measured before and after a 12-h incubation by liquid-chromatography-coupled mass spectrometry (LC–MS). Conditions: 2 µM.
In the case of `CN(C)CCC=C1c2ccccc2C=Cc2ccccc21` [CYCLOBENZAPRINE], the “Bacterial Biotransformation” value is on record as “Compound NOT metabolized”.

Consider `CCOC(=O)[C@H](CCc1ccccc1)N[C@@H](C)C(=O)N1Cc2ccccc2C[C@H]1C(=O)O`, for which the “Bacterial Biotransformation” value was “Compound metabolized”.

Regarding `COC(=O)[C@H](c1ccccc1Cl)N1CCc2sccc2C1.O=S(=O)(O)O` [CLOPIDOGREL BISULFATE], the “Bacterial Biotransformation” value is given as “Compound NOT metabolized”.

For a further series the following is noted: roseburia intestinalis, 12 h, 2 µM.
Description: The drug is tested on Roseburia intestinalis strain: L1-82 for biotransformation. The drug concentrations were measured before and after a 12-h incubation by liquid-chromatography-coupled mass spectrometry (LC–MS)
With `CCOC(=O)[C@H](CCc1ccccc1)N[C@@H](C)C(=O)N1Cc2ccccc2C[C@H]1C(=O)O`, the “Bacterial Biotransformation” value is “Compound NOT metabolized”.

With `COC(=O)[C@H](c1ccccc1Cl)N1CCc2sccc2C1.O=S(=O)(O)O` [CLOPIDOGREL BISULFATE], the “Bacterial Biotransformation” value was “Compound NOT metabolized”.

For the next series the following is noted: akkermansia muciniphila, 12 h, 2 µM.
Description: The drug is tested on Akkermansia muciniphila strain: ATCC BAA-835 for biotransformation. The drug concentrations were measured before and after a 12-h incubation by liquid-chromatography-coupled mass spectrometry (LC–MS)
Regarding `COC(=O)[C@H](c1ccccc1Cl)N1CCc2sccc2C1.O=S(=O)(O)O` [CLOPIDOGREL BISULFATE], the “Bacterial Biotransformation” value is given as “Compound NOT metabolized”.

Another series can be described thus: The drug is tested on Bacteroides vulgatus strain: ATCC8482 for biotransformation. The drug concentrations were measured before and after a 12-h incubation by liquid-chromatography-coupled mass spectrometry (LC–MS). Conditions: phocaeicola vulgatus, 2 µM.
For the compound `CN(C)CCC=C1c2ccccc2C=Cc2ccccc21` [CYCLOBENZAPRINE], the “Bacterial Biotransformation” value is “Compound NOT metabolized”.

`CCOC(=O)[C@H](CCc1ccccc1)N[C@@H](C)C(=O)N1Cc2ccccc2C[C@H]1C(=O)O`: the “Bacterial Biotransformation” value is listed as “Compound metabolized”.

Consider `COC(=O)[C@H](c1ccccc1Cl)N1CCc2sccc2C1.O=S(=O)(O)O` [CLOPIDOGREL BISULFATE], for which the “Bacterial Biotransformation” value is listed as “Compound metabolized”.

The nature of another series: The drug is tested on Dorea formicigenerans strain: ATCC27755 for biotransformation. The drug concentrations were measured before and after a 12-h incubation by liquid-chromatography-coupled mass spectrometry (LC–MS). Conditions: 2 µM.
`CN(C)CCC=C1c2ccccc2C=Cc2ccccc21` [CYCLOBENZAPRINE]: the “Bacterial Biotransformation” value is on record as “Compound NOT metabolized”.

As for `CCOC(=O)[C@H](CCc1ccccc1)N[C@@H](C)C(=O)N1Cc2ccccc2C[C@H]1C(=O)O`, the “Bacterial Biotransformation” value is on record as “Compound NOT metabolized”.

Consider `COC(=O)[C@H](c1ccccc1Cl)N1CCc2sccc2C1.O=S(=O)(O)O` [CLOPIDOGREL BISULFATE], for which the “Bacterial Biotransformation” value is “Compound NOT metabolized”.

The conditions of a further series: bacteroides thetaiotaomicron, 12 h, 2 µM. This is another data set of the same source.
Description: The drug is tested on Bacteroides thetaiotaomicron strain: 7330 for biotransformation. The drug concentrations were measured before and after a 12-h incubation by liquid-chromatography-coupled mass spectrometry (LC–MS)
For `CCOC(=O)[C@H](CCc1ccccc1)N[C@@H](C)C(=O)N1Cc2ccccc2C[C@H]1C(=O)O`, the “Bacterial Biotransformation” value was “Compound metabolized”.

On to `COC(=O)[C@H](c1ccccc1Cl)N1CCc2sccc2C1.O=S(=O)(O)O` [CLOPIDOGREL BISULFATE], for which the “Bacterial Biotransformation” value is given as “Compound metabolized”.

The nature of another series: The drug is tested on Blautia luti strain: DSM14534 for biotransformation. The drug concentrations were measured before and after a 12-h incubation by liquid-chromatography-coupled mass spectrometry (LC–MS). It counts as ADME. Details: dose 2 uM, timepoint 0 vs 12 hours. Conditions: 2 µM.
On to `CN(C)CCC=C1c2ccccc2C=Cc2ccccc21` [CYCLOBENZAPRINE], for which the “Bacterial Biotransformation” value is on record as “Compound NOT metabolized”.

Take `CCOC(=O)[C@H](CCc1ccccc1)N[C@@H](C)C(=O)N1Cc2ccccc2C[C@H]1C(=O)O`: the “Bacterial Biotransformation” value is reported as “Compound NOT metabolized”.

Consider `COC(=O)[C@H](c1ccccc1Cl)N1CCc2sccc2C1.O=S(=O)(O)O` [CLOPIDOGREL BISULFATE], for which the “Bacterial Biotransformation” value was “Compound NOT metabolized”.

A short description of another series: The drug is tested on Bacteroides cellulosilyticus strain: DSM14838 for biotransformation. The drug concentrations were measured before and after a 12-h incubation by liquid-chromatography-coupled mass spectrometry (LC–MS). Conditions: 2 µM.
Take `CCOC(=O)[C@H](CCc1ccccc1)N[C@@H](C)C(=O)N1Cc2ccccc2C[C@H]1C(=O)O`: the “Bacterial Biotransformation” value is on record as “Compound metabolized”.

Take `COC(=O)[C@H](c1ccccc1Cl)N1CCc2sccc2C1.O=S(=O)(O)O` [CLOPIDOGREL BISULFATE]: the “Bacterial Biotransformation” value was “Compound NOT metabolized”.

The next series can be described thus: The drug is tested on Eubacterium ventriosum strain: ATCC27560 for biotransformation. The drug concentrations were measured before and after a 12-h incubation by liquid-chromatography-coupled mass spectrometry (LC–MS). The format is ADME. Set-up: dose 2 uM, timepoint 0 vs 12 hours. Conditions: 2 µM.
Regarding `CN(C)CCC=C1c2ccccc2C=Cc2ccccc21` [CYCLOBENZAPRINE], the “Bacterial Biotransformation” value is “Compound NOT metabolized”.

As to `COC(=O)[C@H](c1ccccc1Cl)N1CCc2sccc2C1.O=S(=O)(O)O` [CLOPIDOGREL BISULFATE], the “Bacterial Biotransformation” value is on record as “Compound NOT metabolized”.

The conditions of a further series: segatella copri, 12 h, 2 µM.
Description: The drug is tested on Prevotella copri strain: DSM18205 for biotransformation. The drug concentrations were measured before and after a 12-h incubation by liquid-chromatography-coupled mass spectrometry (LC–MS)
Turning to `CN(C)CCC=C1c2ccccc2C=Cc2ccccc21` [CYCLOBENZAPRINE], the “Bacterial Biotransformation” value is listed as “Compound NOT metabolized”.

With `CCOC(=O)[C@H](CCc1ccccc1)N[C@@H](C)C(=O)N1Cc2ccccc2C[C@H]1C(=O)O`, the “Bacterial Biotransformation” value is given as “Compound metabolized”.

Turning to `COC(=O)[C@H](c1ccccc1Cl)N1CCc2sccc2C1.O=S(=O)(O)O` [CLOPIDOGREL BISULFATE], the “Bacterial Biotransformation” value is listed as “Compound NOT metabolized”.

Another series can be described thus: The drug is tested on Bacteroides sp. WH2 strain: WH2 for biotransformation. The drug concentrations were measured before and after a 12-h incubation by liquid-chromatography-coupled mass spectrometry (LC–MS). Conditions: bacteroides sp. wh2, 12 h, 2 µM.
Take `CN(C)CCC=C1c2ccccc2C=Cc2ccccc21` [CYCLOBENZAPRINE]: the “Bacterial Biotransformation” value was “Compound NOT metabolized”.

As for `CCOC(=O)[C@H](CCc1ccccc1)N[C@@H](C)C(=O)N1Cc2ccccc2C[C@H]1C(=O)O`, the “Bacterial Biotransformation” value is reported as “Compound NOT metabolized”.

Consider `COC(=O)[C@H](c1ccccc1Cl)N1CCc2sccc2C1.O=S(=O)(O)O` [CLOPIDOGREL BISULFATE], for which the “Bacterial Biotransformation” value is listed as “Compound NOT metabolized”.

A further series is described as follows: The drug is tested on Subdoligranulum variabile strain: DSM15176 for biotransformation. The drug concentrations were measured before and after a 12-h incubation by liquid-chromatography-coupled mass spectrometry (LC–MS). Conditions: 2 µM.
`CCOC(=O)[C@H](CCc1ccccc1)N[C@@H](C)C(=O)N1Cc2ccccc2C[C@H]1C(=O)O`: the “Bacterial Biotransformation” value is reported as “Compound metabolized”.

`COC(=O)[C@H](c1ccccc1Cl)N1CCc2sccc2C1.O=S(=O)(O)O` [CLOPIDOGREL BISULFATE]: the “Bacterial Biotransformation” value is “Compound NOT metabolized”.

Another series can be described thus: The drug is tested on Bacteroides fragilis strain: HMW610 for biotransformation. The drug concentrations were measured before and after a 12-h incubation by liquid-chromatography-coupled mass spectrometry (LC–MS). Conditions: 2 µM.
With `CN(C)CCC=C1c2ccccc2C=Cc2ccccc21` [CYCLOBENZAPRINE], the “Bacterial Biotransformation” value was “Compound NOT metabolized”.

As to `COC(=O)[C@H](c1ccccc1Cl)N1CCc2sccc2C1.O=S(=O)(O)O` [CLOPIDOGREL BISULFATE], the “Bacterial Biotransformation” value is given as “Compound metabolized”.

For another series the following is noted: bacteroides eggerthii, 12 h, 2 µM.
Description: The drug is tested on Bacteroides eggerthii strain: DSM20697 for biotransformation. The drug concentrations were measured before and after a 12-h incubation by liquid-chromatography-coupled mass spectrometry (LC–MS)
As for `CN(C)CCC=C1c2ccccc2C=Cc2ccccc21` [CYCLOBENZAPRINE], the “Bacterial Biotransformation” value is recorded as “Compound NOT metabolized”.

As for `CCOC(=O)[C@H](CCc1ccccc1)N[C@@H](C)C(=O)N1Cc2ccccc2C[C@H]1C(=O)O`, the “Bacterial Biotransformation” value is “Compound metabolized”.

Take `COC(=O)[C@H](c1ccccc1Cl)N1CCc2sccc2C1.O=S(=O)(O)O` [CLOPIDOGREL BISULFATE]: the “Bacterial Biotransformation” value is “Compound metabolized”.
